The target in one assay is T1, GAT-1 (Mus musculus, UniProt P31648).
T1 construct: endogenous in cells; host or cells: primary cortical astrocytes from wild-type littermate pups (C57BL/6J background), passage 2
Kind of assay: 3H GABA uptake, cortical astrocytes cultured from wildtype pups. The assay is classed as cell-based. To be noted: wt astrocytes (pooled from two mouse lines); PBA 2 mM, 24 hr; SNAP5114 30 μM. The method, then:
(§1) Mouse cortical astrocytes or neurons were cultured from postnatal pus at day 0-3 days old for astrocytes and day 0 for neurons from the SLC6A1^+/A288V or SLC6A1^+/S295L mouse line. FIGS. 7A-B show astrocytes under passage 2 were grown in […] dishes and passaged into 35-mm^2 dishes before GABA uptake assay.
(§2) FIGS. 7C-D show neurons directly cultured in the 35-mm^2 dishes and GABA uptake was evaluated between day 15-17 days after culture. CI-966 (50 μM) and NNC711 (35 μM) was applied 30 min before preincubation and removed during preincubation. GAT-3 inhibitor SNAP5114 (30 μM) was applied during GABA uptake to make sure only GAT-1 activity was measured. The wildtype astrocytes (FIGS. 7A-B) or cortical neurons (FIGS. 7C-D) of either SLC6A1^+/A288V or SLC6A1^+/S295L were taken as 1. The cultures derived from each mutant mouse was compared to the culture from its own wildtype littermates. […] The wildtype data were pooled from two mouse lines. […] The graph represents the relative GABA uptake level normalized to cells of its own genotype treated with DMSO. CI-966 (50 μM) or NNC-711 (35 μM) was applied 30 min before preincubation and removed during preincubation. Two-way analysis of variance followed by Bonferroni multiple comparison test was used. Values were expressed as mean±S.E.M. In FIG. 7A and FIG. 7C, ***p<0.001 vs. wt; § § § P<0.001 S295L vs. A288V. […]

The next assay deals with GAT-1 (SLC6A1^+/S295L). The experiment in a line: 3H GABA uptake, cortical astrocytes from SLC6A1^+/S295L knockin mice. It counts as cell-based, mouse. The settings on record: S295L heterozygous astrocytes; PBA 2 mM, 24 hr; SNAP5114 30 μM. How it is done: as §1, §2

In the case of `O=C(O)CCCc1ccccc1` [PBA, 4-phenylbutyric acid], the figures for the “GABA uptake activity normalized to its own DMSO condition” value on GAT-1 and with GAT-1 (SLC6A1^+/S295L) were 1.22±0.058 and 1.54±0.13, respectively.
